Laboratory results: paper PMC11277489, “Novel Piperazine Derivatives of Vindoline as Anticancer Agents” (International Journal of Molecular Sciences, 2024)
Read-outs that look alike come from different tables or passages of the source.

Key:
SF-539 = test: NCI60 one-dose screen (10 μM), CNS Cancer; format: cell-based, human; conditions: Homo sapiens
786–0 = test: NCI60 one-dose screen (10 μM), Renal Cancer; format: cell-based; conditions: Homo sapiens
SNB-19 = test: NCI60 one-dose screen (10 μM), CNS Cancer; format: cell-based; conditions: Homo sapiens
CCRF-CEM = test: NCI60 one-dose screen (10 μM), Leukemia; format: cell-based; conditions: Homo sapiens, read-out: Growth percent rate
M14 = test: NCI60 one-dose screen (10 μM), Melanoma; format: cell-based; conditions: Homo sapiens
SNB-75 = test: NCI60 one-dose screen (10 μM), CNS Cancer; format: cell-based, human; conditions: Homo sapiens
OVCAR-4 = test: NCI60 one-dose screen (10 μM), Ovarian Cancer; format: cell-based; conditions: Homo sapiens
NCI-H23 = test: NCI60 one-dose screen (10 μM), Non-small Cell Lung Cancer; format: cell-based; conditions: Homo sapiens
SF-268 = test: NCI60 one-dose screen (10 μM), CNS Cancer; format: cell-based; conditions: Homo sapiens
HCT-15 = test: NCI60 one-dose screen (10 μM), Colon Cancer; format: cell-based; conditions: Homo sapiens
LOX IMVI = test: NCI60 one-dose screen (10 μM), Melanoma; format: cell-based, human; conditions: Homo sapiens, LOX IMVI, read-out: Growth percent rate
ACHN = test: NCI60 one-dose screen (10 μM), Renal Cancer; format: cell-based; conditions: Homo sapiens, read-out: Growth percent rate
SW-620 = test: NCI60 one-dose screen (10 μM), Colon Cancer; format: cell-based; conditions: Homo sapiens
RPMI-8226 = test: NCI60 one-dose screen (10 μM), Leukemia; format: cell-based; conditions: Homo sapiens
A498 = test: NCI60 one-dose screen (10 μM), Renal Cancer; format: cell-based; conditions: Homo sapiens
MALME-3M = test: NCI60 one-dose screen (10 μM), Melanoma; format: cell-based; conditions: Homo sapiens, read-out: Growth percent rate
TK-10 = test: NCI60 one-dose screen (10 μM), Renal Cancer; format: cell-based; conditions: Homo sapiens
OVCAR-8 = test: NCI60 one-dose screen (10 μM), Ovarian Cancer; format: cell-based; conditions: Homo sapiens
COLO 205 = test: NCI60 one-dose screen (10 μM), Colon Cancer; format: cell-based, human; conditions: Homo sapiens
NCI-H322M = test: NCI60 one-dose screen (10 μM), Non-small Cell Lung Cancer; format: cell-based; conditions: Homo sapiens, read-out: Growth percent rate
MOLT-4 = test: NCI60 one-dose screen (10 μM), Leukemia; format: cell-based, human; conditions: Homo sapiens
SK-MEL-2 = test: NCI60 one-dose screen (10 μM), Melanoma; format: cell-based; conditions: Homo sapiens
CAKI-1 = test: NCI60 one-dose screen (10 μM), Renal Cancer; format: cell-based; conditions: Homo sapiens
HOP-62 = test: NCI60 one-dose screen (10 μM), Non-small Cell Lung Cancer; format: cell-based; conditions: Homo sapiens
SK-MEL-28 = test: NCI60 one-dose screen (10 μM), Melanoma; format: cell-based; conditions: Homo sapiens
A549/ATCC = test: NCI60 one-dose screen (10 μM), Non-small Cell Lung Cancer; format: cell-based; conditions: Homo sapiens
KM12 = test: NCI60 one-dose screen (10 μM), Colon Cancer; format: cell-based, human; conditions: Homo sapiens
K-562 = test: NCI60 one-dose screen (10 μM), Leukemia; format: cell-based; conditions: Homo sapiens
SF-295 = test: NCI60 one-dose screen (10 μM), CNS Cancer; format: cell-based; conditions: Homo sapiens
MDA-MB-435 = test: NCI60 one-dose screen (10 μM), Melanoma; format: cell-based; conditions: Homo sapiens
SK-MEL-5 = test: NCI60 one-dose screen (10 μM), Melanoma; format: cell-based, human; conditions: Homo sapiens
DU-145 = test: NCI60 one-dose screen (10 μM), Prostate Cancer; format: cell-based; conditions: Homo sapiens
NCI-H460 = test: NCI60 one-dose screen (10 μM), Non-small Cell Lung Cancer; format: cell-based; conditions: Homo sapiens
HT29 = test: NCI60 one-dose screen (10 μM), Colon Cancer; format: cell-based; conditions: Homo sapiens
[1] = system: 60 human tumor cell lines (NCI60); test: NCI60 one-dose screen (10 μM), whole panel; format: cell-based; conditions: for antiproliferative effect (in words): 10 μM one-dose, NCI60; for activity at 10 µM: read-out: Growth percent rate, Mean
IGROV1 = test: NCI60 one-dose screen (10 μM), Ovarian Cancer; format: cell-based; conditions: Homo sapiens
MCF7 = test: NCI60 one-dose screen (10 μM), Breast Cancer; format: cell-based; conditions: Homo sapiens
RXF 393 = test: NCI60 one-dose screen (10 μM), Renal Cancer; format: cell-based, human; conditions: Homo sapiens
U251 = test: NCI60 one-dose screen (10 μM), CNS Cancer; format: cell-based; conditions: Homo sapiens
UACC-257 = test: NCI60 one-dose screen (10 μM), Melanoma; format: cell-based; conditions: Homo sapiens
HL-60(TB) = test: NCI60 one-dose screen (10 μM), Leukemia; format: cell-based; conditions: Homo sapiens

CCC12C=CCN3CC[C@@]4(c5ccc(OC)cc5N(C)[C@H]4[C@@](O)(C(=O)OC)[C@@H]1OC(C)=O)[C@@H]32 (stereo partly drawn) [Compound 1, vindoline]
activity at 10 µM (SF-539; SF-539, read-out: Growth percent rate): 116% | activity at 10 µM (786–0; 786-0, read-out: Growth percent rate): 97.5% | activity at 10 µM (SNB-19; SNB-19, read-out: Growth percent rate): 102% | activity at 10 µM (CCRF-CEM): 102% | activity at 10 µM (M14; M14, read-out: Growth percent rate): 105% | activity at 10 µM (SNB-75; SNB-75, read-out: Growth percent rate): 119% | activity at 10 µM (OVCAR-4; OVCAR-4, read-out: Growth percent rate): 136% | activity at 10 µM (NCI-H23; NCI-H23, read-out: Growth percent rate): 95.3% | activity at 10 µM (SF-268; SF-268, read-out: Growth percent rate): 122% | activity at 10 µM (HCT-15; HCT-15, read-out: Growth percent rate): 103% | activity at 10 µM (LOX IMVI): 95.3% | activity at 10 µM (ACHN): 105% | activity at 10 µM (SW-620; SW-620, read-out: Growth percent rate): 121% | activity at 10 µM (RPMI-8226; RPMI-8226, read-out: Growth percent rate): 105% | activity at 10 µM (A498; A498, read-out: Growth percent rate): 137% | activity at 10 µM (MALME-3M; Malme-3M): 147% | activity at 10 µM (TK-10; TK-10, read-out: Growth percent rate): 97.5% | activity at 10 µM (OVCAR-8; OVCAR-8, read-out: Growth percent rate): 103% | activity at 10 µM (COLO 205; COLO 205, read-out: Growth percent rate): 111% | activity at 10 µM (NCI-H322M): 109% | activity at 10 µM (MOLT-4; MOLT-4, read-out: Growth percent rate): 92.7% | activity at 10 µM (SK-MEL-2; SK-MEL-2, read-out: Growth percent rate): 106% | activity at 10 µM (CAKI-1; CAKI-1, read-out: Growth percent rate): 105% | activity at 10 µM (HOP-62; HOP-62, read-out: Growth percent rate): 99% | activity at 10 µM (SK-MEL-28; SK-MEL-28, read-out: Growth percent rate): 134% | activity at 10 µM (A549/ATCC; A549, read-out: Growth percent rate): 101% | activity at 10 µM (KM12; KM12, read-out: Growth percent rate): 108% | activity at 10 µM (K-562; K562, read-out: Growth percent rate): 89.3% | activity at 10 µM (SF-295; SF-295, read-out: Growth percent rate): 103% | activity at 10 µM (MDA-MB-435; MDA-MB-435, read-out: Growth percent rate): 104% | activity at 10 µM (SK-MEL-5; SK-MEL-5, read-out: Growth percent rate): 89.2% | activity at 10 µM (DU-145; DU-145, read-out: Growth percent rate): 119% | activity at 10 µM (NCI-H460; NCI-H460, read-out: Growth percent rate): 120% | activity at 10 µM (HT29; HT-29, read-out: Growth percent rate): 108% | antiproliferative effect (in words) [1]: a notable antiproliferative effect was not shown | antiproliferative effect (in words) ([1]; listed as vindoline): does not show any anticancer effect | activity at 10 µM ([1]; Homo sapiens): 107% | activity at 10 µM (IGROV1; IGROV-1, read-out: Growth percent rate): 145% | activity at 10 µM (MCF7; MCF7, read-out: Growth percent rate): 89.9% | activity at 10 µM (RXF 393; RXF 393, read-out: Growth percent rate): 98% | activity at 10 µM (U251; U-251, read-out: Growth percent rate): 95.9% | activity at 10 µM (UACC-257; UACC-257, read-out: Growth percent rate): 95.8% | activity at 10 µM (HL-60(TB); HL-60, read-out: Growth percent rate): 96.7%

CCC12C=CCN3CCC4(c5cc(NC(=O)CN6CCN(C)CC6)c(OC)cc5N(C)C4C(O)(C(=O)OC)C1OC(C)=O)C32 (stereo not drawn) [Compound 16]
activity at 10 µM (SF-539; 10 μM, SF-539, CNS Cancer, read-out: Growth percent rate): 101% | activity at 10 µM (786–0; 10 μM, 786-0, Renal Cancer, read-out: Growth percent rate): 106% | activity at 10 µM (SNB-19; 10 μM, SNB-19, CNS Cancer, read-out: Growth percent rate): 105% | activity at 10 µM (CCRF-CEM; 10 μM, Leukemia): 112% | activity at 10 µM (M14; 10 μM, M14, Melanoma, read-out: Growth percent rate): 101% | activity at 10 µM (SNB-75; 10 μM, SNB-75, CNS Cancer, read-out: Growth percent rate): 95.6% | activity at 10 µM (OVCAR-4; 10 μM, OVCAR-4, Ovarian Cancer, read-out: Growth percent rate): 109% | activity at 10 µM (NCI-H23; 10 μM, NCI-H23, Non-small Cell Lung Cancer, read-out: Growth percent rate): 103% | activity at 10 µM (SF-268; 10 μM, SF-268, CNS Cancer, read-out: Growth percent rate): 116% | activity at 10 µM (HCT-15; 10 μM, HCT-15, Colon Cancer, read-out: Growth percent rate): 101% | activity at 10 µM (LOX IMVI; 10 μM, Melanoma): 95.2% | activity at 10 µM (ACHN; 10 μM, Renal Cancer): 104% | activity at 10 µM (SW-620; 10 μM, SW-620, Colon Cancer, read-out: Growth percent rate): 124% | activity at 10 µM (RPMI-8226; 10 μM, RPMI-8226, Leukemia, read-out: Growth percent rate): 102% | activity at 10 µM (A498; 10 μM, A498, Renal Cancer, read-out: Growth percent rate): 158% | activity at 10 µM (MALME-3M; 10 μM, MALME-3M, Melanoma): 97.5% | activity at 10 µM (TK-10; 10 μM, TK-10, Renal Cancer, read-out: Growth percent rate): 103% | activity at 10 µM (OVCAR-8; 10 μM, OVCAR-8, Ovarian Cancer, read-out: Growth percent rate): 97.8% | activity at 10 µM (COLO 205; 10 μM, COLO 205, Colon Cancer, read-out: Growth percent rate): 105% | activity at 10 µM (NCI-H322M; 10 μM, Non-small Cell Lung Cancer): 101% | activity at 10 µM (MOLT-4; 10 μM, MOLT-4, Leukemia, read-out: Growth percent rate): 108% | activity at 10 µM (SK-MEL-2; 10 μM, SK-MEL-2, Melanoma, read-out: Growth percent rate): 108% | activity at 10 µM (CAKI-1; 10 μM, CAKI-1, Renal Cancer, read-out: Growth percent rate): 89.5% | activity at 10 µM (HOP-62; 10 μM, HOP-62, Non-small Cell Lung Cancer, read-out: Growth percent rate): 104% | activity at 10 µM (SK-MEL-28; 10 μM, SK-MEL-28, Melanoma, read-out: Growth percent rate): 111% | activity at 10 µM (A549/ATCC; 10 μM, A549/ATCC, Non-small Cell Lung Cancer, read-out: Growth percent rate): 97.1% | activity at 10 µM (KM12; 10 μM, KM12, Colon Cancer, read-out: Growth percent rate): 112% | activity at 10 µM (K-562; K562, 10 μM, K-562, Leukemia, read-out: Growth percent rate): 85.8% | activity at 10 µM (SF-295; 10 μM, SF-295, CNS Cancer, read-out: Growth percent rate): 98.8% | activity at 10 µM (MDA-MB-435; 10 μM, MDA-MB-435, Melanoma, read-out: Growth percent rate): 114% | activity at 10 µM (SK-MEL-5; 10 μM, SK-MEL-5, Melanoma, read-out: Growth percent rate): 102% | activity at 10 µM (DU-145; 10 μM, DU-145, Prostate Cancer, read-out: Growth percent rate): 115% | activity at 10 µM (NCI-H460; 10 μM, NCI-H460, Non-small Cell Lung Cancer, read-out: Growth percent rate): 142% | activity at 10 µM (HT29; HT-29, 10 μM, HT29, Colon Cancer, read-out: Growth percent rate): 104% | activity at 10 µM ([1]; 10 μM, mean over 60 human cancer cell lines): 103% | activity at 10 µM (IGROV1; IGROV-1, 10 μM, IGROV1, Ovarian Cancer, read-out: Growth percent rate): 112% | activity at 10 µM (MCF7; 10 μM, MCF7, Breast Cancer, read-out: Growth percent rate): 84.3% | activity at 10 µM (RXF 393; 10 μM, RXF 393, Renal Cancer, read-out: Growth percent rate): 102% | activity at 10 µM (U251; U-251, 10 μM, U251, CNS Cancer, read-out: Growth percent rate): 97.4% | activity at 10 µM (UACC-257; 10 μM, UACC-257, Melanoma, read-out: Growth percent rate): -7.95% | activity at 10 µM (HL-60(TB); 10 μM, HL-60(TB), Leukemia, read-out: Growth percent rate): 97.5%
